{"source": "patent US7807707B2", "about": "“Hair and/or scalp care compositions incorporating amino-oxo-indole-ylidene compounds” (priority 2005, dated 2010)", "key": {"[1]": {"molecular_target": "T1, Cannabinoid Receptor 1 (CB1R) (Homo sapiens, UniProt P21554)", "T1 construct": "purchased Perkin-Elmer; host or cells: HEK293", "T1 sequence (P21554 whole entry)": "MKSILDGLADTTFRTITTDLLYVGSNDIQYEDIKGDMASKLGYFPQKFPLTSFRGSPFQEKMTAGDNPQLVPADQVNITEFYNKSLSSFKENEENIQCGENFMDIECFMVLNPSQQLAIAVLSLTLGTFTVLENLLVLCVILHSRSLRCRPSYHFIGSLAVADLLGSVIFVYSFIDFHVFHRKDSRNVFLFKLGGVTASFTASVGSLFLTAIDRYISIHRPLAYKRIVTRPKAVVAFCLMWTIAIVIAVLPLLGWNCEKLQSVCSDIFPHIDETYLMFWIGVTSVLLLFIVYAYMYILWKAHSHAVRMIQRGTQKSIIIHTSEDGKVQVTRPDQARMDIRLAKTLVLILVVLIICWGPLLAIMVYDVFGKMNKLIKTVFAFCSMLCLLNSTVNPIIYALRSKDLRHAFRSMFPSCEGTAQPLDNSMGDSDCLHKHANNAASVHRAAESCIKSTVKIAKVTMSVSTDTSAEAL", "assay": "CB1R radioligand assay on membranes from HEK293 cells over-expressing human recombinant CB1", "type": "binding", "conditions": "human recombinant CB1, [3H]CP-55,490 radioligand, n=3", "protocol": "(§1) An amino-oxo-indole-ylidene compound of formula (I) was evaluated for its ability to activate Cannabinoid Receptor 1 (CB1R) and Cannabinoid Receptor 2 (CB2R). Its C log P value were also measured.\nCB1R experiments were performed using membranes from HEK293 cells over-expressing human recombinant CB1, as described by the manufacturer (Perkin-Elmer) and using [3H]CP-55,490 as the radioligand.\n(§2) Data of the active compound is expressed in Ki (mM) and are means±SEM of n=3 determinations.\n(§3) The value stated is an EC50 value. This is defined as the molar concentration of an agonist, which produces 50% of the maximum possible response for that agonist. The values documented are in micromolar units."}, "[2]": {"molecular_target": "T2, Cannabinoid Receptor 2 (CB2R) (Homo sapiens, UniProt P34972)", "T2 construct": "purchased Perkin-Elmer; host or cells: HEK293", "T2 sequence (P34972 whole entry)": "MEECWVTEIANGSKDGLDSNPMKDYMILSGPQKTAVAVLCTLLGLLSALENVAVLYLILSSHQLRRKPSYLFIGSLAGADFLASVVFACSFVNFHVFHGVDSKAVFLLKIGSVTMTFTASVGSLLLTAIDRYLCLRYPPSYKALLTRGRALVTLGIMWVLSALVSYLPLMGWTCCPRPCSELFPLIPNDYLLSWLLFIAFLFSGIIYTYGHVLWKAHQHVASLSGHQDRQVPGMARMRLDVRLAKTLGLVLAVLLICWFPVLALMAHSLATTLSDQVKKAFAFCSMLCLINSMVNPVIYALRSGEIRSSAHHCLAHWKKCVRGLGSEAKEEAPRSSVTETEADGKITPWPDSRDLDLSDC", "assay": "CB2R radioligand assay on membranes from HEK293 cells over-expressing human recombinant CB2", "type": "binding", "protocol": "as §1\nCB2R experiments were performed using membranes from HEK293 cells over-expressing human recombinant CB2, as described by the manufacturer (Perkin-Elmer), and using [3H]CP-55,495 as the radioligand.\nas §2, §3"}}, "note": "pEC50: −log10 of the molar value."}
{"smiles": "O=C(CNc1cccc2ccccc12)N/N=C1\\C(=O)N(CCc2ccccc2)c2ccccc21", "note": "[Example 1, (naphthalen-1-ylamino)-acetic acid (2-oxo-1-phenethyl-1,2-dihydro-indol-3-ylidene)-hydrazide]", "values": [{"measurement": "pEC50", "setting": "[1]", "value": "< 4.60"}, {"measurement": "pEC50", "setting": "[2]", "value": 4.68}]}
